Values quoted from earlier work, collected in US20080187585A1, “Prolonged-Release Compositions Comprising Torasemide and a Matrix-Forming Polymer” (FERRER INTERNACIONAL S.A., priority 2004, published 2008).

Tests used:
[1] = not given; remark: listed apart in the source

bioavailability ([1]; after oral administration): 80-90% | kinetics ([1]; oral administration): linear | elimination half-life (t1/2) ([1]; oral administration, man): 3 to 4 h | tmax (time to maximum plasma concentration) ([1]; oral administration, man): approximately 1 hour
Compound: Cc1cccc(Nc2ccncc2S(=O)(=O)NC(=O)NC(C)C)c1 [torasemide, Torasemide]
time of maximal effects on urine and electrolytes excretions (after oral administration): approximately 2 hours | dose-response relationship for urinary volume (doses from 2.5 to 20 mg): linear dose-response relationship
